# Source: patent US10168342B2, “Lipid probes and uses thereof” (THE SCRIPPS RESEARCH INSTITUTE, priority 2015, dated 2019)
# What was measured:
# Test in all cases: SILAC MS mapping of lipid probe targets (probe-versus-No UV, probe-versus-probe) in Neuro2a cells
# [1] = target: T1, lipid-binding proteins in Neuro2a cells (Mus musculus, UniProt Q9R0P6); format: cell-based; conditions: AEA-DA probe vs NoUV
# T1 construct: endogenous in cells; host or cells: Neuro2a
# [2] = target: T2, lipid-binding proteins in Neuro2a cells (Mus musculus, UniProt Q924Z4); format: cell-based; conditions: AEA-DA probe vs NoUV
# T2 construct: endogenous in cells; host or cells: Neuro2a
# [3] = target: T3, lipid-binding proteins in Neuro2a cells (Mus musculus, UniProt Q9CQ85); format: cell-based; conditions: AEA-DA probe vs NoUV
# T3 construct: endogenous in cells; host or cells: Neuro2a
# [4] = target: T4, lipid-binding proteins in Neuro2a cells (Mus musculus, UniProt Q9R1J0); format: cell-based; conditions: AEA-DA probe vs NoUV
# T4 construct: endogenous in cells; host or cells: Neuro2a
# [5] = target: T5, lipid-binding proteins in Neuro2a cells (Mus musculus, UniProt Q60930); format: cell-based; conditions: AEA-DA probe vs NoUV
# T5 construct: endogenous in cells; host or cells: Neuro2a
# [6] = system: lipid-binding proteins in Neuro2a cells; format: cell-based, mouse; conditions: AEA-DA probe vs NoUV
# [7] = target: T6, lipid-binding proteins in Neuro2a cells (Mus musculus, UniProt Q8BVU5); format: cell-based; conditions: protein Nudt9, AEA-DA probe, No UV control
# T6 construct: endogenous in cells; host or cells: Neuro2a
# [8] = target: T7, lipid-binding proteins in Neuro2a cells (Mus musculus, UniProt Q9CPQ3); format: cell-based; conditions: AEA-DA probe vs NoUV
# T7 construct: endogenous in cells; host or cells: Neuro2a
# [9] = target: T8, lipid-binding proteins in Neuro2a cells (Mus musculus, UniProt Q91VM5); format: cell-based; conditions: protein Rbmxl1, AEA-DA probe, No UV control
# T8 construct: endogenous in cells; host or cells: Neuro2a
# [10] = target: T9, lipid-binding proteins in Neuro2a cells (Mus musculus, UniProt P21619); format: cell-based; conditions: protein Lmnb2, AEA-DA probe, No UV control
# T9 construct: endogenous in cells; host or cells: Neuro2a
# [11] = target: T10, lipid-binding proteins in Neuro2a cells (Mus musculus, UniProt Q9Z0R9); format: cell-based; conditions: AEA-DA probe vs NoUV
# T10 construct: endogenous in cells; host or cells: Neuro2a
# [12] = target: T11, lipid-binding proteins in Neuro2a cells (Mus musculus, UniProt Q8BHC4); format: cell-based; conditions: AEA-DA probe vs NoUV
# T11 construct: endogenous in cells; host or cells: Neuro2a
# [13] = target: T12, lipid-binding proteins in Neuro2a cells (Mus musculus, UniProt Q8BJ03); format: cell-based; conditions: protein Cox15, AEA-DA probe, No UV control
# T12 construct: endogenous in cells; host or cells: Neuro2a
# [14] = target: T13, lipid-binding proteins in Neuro2a cells (Mus musculus, UniProt Q3UV70); format: cell-based; conditions: protein Pdp1, AEA-DA probe, No UV control
# T13 construct: endogenous in cells; host or cells: Neuro2a
# [15] = target: T14, lipid-binding proteins in Neuro2a cells (Mus musculus, UniProt Q924D0); format: cell-based; conditions: protein Rtn4ip1, AEA-DA probe, No UV control
# T14 construct: endogenous in cells; host or cells: Neuro2a
# [16] = target: T15, lipid-binding proteins in Neuro2a cells (Mus musculus, UniProt Q8BIJ6); format: cell-based; conditions: protein Iars2, AEA-DA probe, No UV control
# T15 construct: endogenous in cells; host or cells: Neuro2a
# [17] = target: T16, lipid-binding proteins in Neuro2a cells (Mus musculus, UniProt Q91V01); format: cell-based; conditions: AEA-DA probe vs NoUV
# T16 construct: endogenous in cells; host or cells: Neuro2a
# [18] = target: T17, lipid-binding proteins in Neuro2a cells (Mus musculus, UniProt Q61207); format: cell-based; conditions: AEA-DA probe vs NoUV
# T17 construct: endogenous in cells; host or cells: Neuro2a
# [19] = target: T18, lipid-binding proteins in Neuro2a cells (Mus musculus, UniProt Q8VCB1); format: cell-based; conditions: AEA-DA probe vs NoUV
# T18 construct: endogenous in cells; host or cells: Neuro2a
# [20] = target: T19, lipid-binding proteins in Neuro2a cells (Mus musculus, UniProt Q61712); format: cell-based; conditions: AEA-DA probe vs NoUV
# T19 construct: endogenous in cells; host or cells: Neuro2a
# [21] = target: T20, lipid-binding proteins in Neuro2a cells (Mus musculus, UniProt O70252); format: cell-based; conditions: AEA-DA probe vs NoUV
# T20 construct: endogenous in cells; host or cells: Neuro2a
# [22] = target: T21, lipid-binding proteins in Neuro2a cells (Mus musculus, UniProt Q505D7); format: cell-based; conditions: AEA-DA probe vs NoUV
# T21 construct: endogenous in cells; host or cells: Neuro2a
# [23] = target: T22, lipid-binding proteins in Neuro2a cells (Mus musculus, UniProt O70503); format: cell-based; conditions: AEA-DA probe vs NoUV
# T22 construct: endogenous in cells; host or cells: Neuro2a
# [24] = target: T23, lipid-binding proteins in Neuro2a cells (Mus musculus, UniProt Q8R0X7); format: cell-based; conditions: AEA-DA probe vs NoUV
# T23 construct: endogenous in cells; host or cells: Neuro2a
# [25] = target: T24, lipid-binding proteins in Neuro2a cells (Mus musculus, UniProt Q80UU9); format: cell-based; conditions: AEA-DA probe vs NoUV
# T24 construct: endogenous in cells; host or cells: Neuro2a
# [26] = target: T25, lipid-binding proteins in Neuro2a cells (Mus musculus, UniProt Q8R2Y0); format: cell-based; conditions: AEA-DA probe vs NoUV
# T25 construct: endogenous in cells; host or cells: Neuro2a
# [27] = target: T26, lipid-binding proteins in Neuro2a cells (Mus musculus, UniProt Q8VCX5); format: cell-based; conditions: protein Micu1, AEA-DA probe, No UV control
# T26 construct: endogenous in cells; host or cells: Neuro2a
# [28] = target: T27, lipid-binding proteins in Neuro2a cells (Mus musculus, UniProt Q99KJ8); format: cell-based; conditions: protein Dctn2, AEA-DA probe, No UV control
# T27 construct: endogenous in cells; host or cells: Neuro2a
# [29] = target: T28, lipid-binding proteins in Neuro2a cells (Mus musculus, UniProt O08579); format: cell-based; conditions: AEA-DA probe vs NoUV
# T28 construct: endogenous in cells; host or cells: Neuro2a
# [30] = target: T29, lipid-binding proteins in Neuro2a cells (Mus musculus, UniProt P97300); format: cell-based; conditions: AEA-DA probe vs NoUV
# T29 construct: endogenous in cells; host or cells: Neuro2a
# [31] = target: T30, lipid-binding proteins in Neuro2a cells (Mus musculus, UniProt Q3KNM2); format: cell-based; conditions: AEA-DA probe vs NoUV
# T30 construct: endogenous in cells; host or cells: Neuro2a
# T8 sequence (Q91VM5 whole entry): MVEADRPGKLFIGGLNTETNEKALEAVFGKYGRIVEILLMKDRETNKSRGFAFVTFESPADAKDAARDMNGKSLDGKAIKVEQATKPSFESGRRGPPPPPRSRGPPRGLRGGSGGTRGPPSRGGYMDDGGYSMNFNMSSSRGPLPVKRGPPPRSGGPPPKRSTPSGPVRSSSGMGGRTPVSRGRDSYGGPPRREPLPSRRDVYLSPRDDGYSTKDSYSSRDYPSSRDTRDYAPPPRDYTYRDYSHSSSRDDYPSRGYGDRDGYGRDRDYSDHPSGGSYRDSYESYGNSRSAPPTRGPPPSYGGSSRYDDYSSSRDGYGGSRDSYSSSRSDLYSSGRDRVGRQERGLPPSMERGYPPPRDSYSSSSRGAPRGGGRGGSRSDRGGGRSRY
# T13 sequence (Q3UV70 72-538): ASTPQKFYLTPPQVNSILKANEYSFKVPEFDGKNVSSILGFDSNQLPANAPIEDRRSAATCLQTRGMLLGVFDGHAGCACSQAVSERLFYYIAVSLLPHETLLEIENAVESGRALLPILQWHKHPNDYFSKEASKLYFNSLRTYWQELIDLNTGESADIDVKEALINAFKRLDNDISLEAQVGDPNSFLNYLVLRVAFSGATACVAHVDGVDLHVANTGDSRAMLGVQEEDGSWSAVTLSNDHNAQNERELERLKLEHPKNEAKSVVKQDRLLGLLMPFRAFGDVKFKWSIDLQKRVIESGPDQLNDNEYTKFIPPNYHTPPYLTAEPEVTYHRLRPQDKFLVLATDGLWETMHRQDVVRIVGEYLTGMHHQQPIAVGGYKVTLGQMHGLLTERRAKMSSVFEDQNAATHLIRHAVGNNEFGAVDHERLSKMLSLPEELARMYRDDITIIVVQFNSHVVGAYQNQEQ
# T16 sequence (Q91V01 whole entry): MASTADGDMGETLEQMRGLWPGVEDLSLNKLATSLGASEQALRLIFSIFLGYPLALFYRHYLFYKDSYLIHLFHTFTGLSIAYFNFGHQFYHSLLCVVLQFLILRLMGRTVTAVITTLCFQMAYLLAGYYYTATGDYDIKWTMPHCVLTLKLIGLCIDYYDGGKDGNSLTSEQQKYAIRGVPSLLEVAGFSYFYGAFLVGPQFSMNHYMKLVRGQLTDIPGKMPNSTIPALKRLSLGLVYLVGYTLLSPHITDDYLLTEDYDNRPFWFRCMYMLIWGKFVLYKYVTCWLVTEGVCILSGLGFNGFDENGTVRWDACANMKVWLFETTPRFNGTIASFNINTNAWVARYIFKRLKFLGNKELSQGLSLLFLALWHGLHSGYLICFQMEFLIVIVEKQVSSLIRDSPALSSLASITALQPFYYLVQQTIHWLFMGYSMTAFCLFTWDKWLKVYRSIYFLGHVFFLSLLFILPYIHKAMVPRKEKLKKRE
# T15 sequence (Q8BIJ6 49-1012): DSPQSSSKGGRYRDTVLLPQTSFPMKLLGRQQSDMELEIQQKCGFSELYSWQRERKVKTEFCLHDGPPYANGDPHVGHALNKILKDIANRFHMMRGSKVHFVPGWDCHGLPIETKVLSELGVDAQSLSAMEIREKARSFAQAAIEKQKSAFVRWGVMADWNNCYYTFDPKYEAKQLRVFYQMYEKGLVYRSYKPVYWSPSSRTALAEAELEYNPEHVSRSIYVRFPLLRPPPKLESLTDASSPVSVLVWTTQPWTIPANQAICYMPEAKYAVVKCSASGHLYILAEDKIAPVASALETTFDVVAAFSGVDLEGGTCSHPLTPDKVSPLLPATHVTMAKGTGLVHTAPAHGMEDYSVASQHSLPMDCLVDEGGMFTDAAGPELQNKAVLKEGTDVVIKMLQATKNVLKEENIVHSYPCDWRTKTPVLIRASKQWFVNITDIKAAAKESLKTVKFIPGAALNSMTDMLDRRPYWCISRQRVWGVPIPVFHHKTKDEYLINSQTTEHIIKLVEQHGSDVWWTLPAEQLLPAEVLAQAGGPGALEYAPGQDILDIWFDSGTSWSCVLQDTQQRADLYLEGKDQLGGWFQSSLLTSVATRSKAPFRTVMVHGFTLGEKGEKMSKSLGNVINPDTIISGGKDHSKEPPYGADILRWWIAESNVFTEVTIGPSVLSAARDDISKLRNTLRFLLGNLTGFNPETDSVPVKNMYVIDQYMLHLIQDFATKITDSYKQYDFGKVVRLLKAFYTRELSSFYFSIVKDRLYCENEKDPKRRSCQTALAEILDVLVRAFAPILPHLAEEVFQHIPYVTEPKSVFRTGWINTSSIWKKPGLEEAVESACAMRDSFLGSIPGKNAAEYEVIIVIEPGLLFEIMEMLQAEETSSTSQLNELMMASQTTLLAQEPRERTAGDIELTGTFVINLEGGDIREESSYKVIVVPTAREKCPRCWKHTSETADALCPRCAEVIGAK
# T19 sequence (Q61712 44-552): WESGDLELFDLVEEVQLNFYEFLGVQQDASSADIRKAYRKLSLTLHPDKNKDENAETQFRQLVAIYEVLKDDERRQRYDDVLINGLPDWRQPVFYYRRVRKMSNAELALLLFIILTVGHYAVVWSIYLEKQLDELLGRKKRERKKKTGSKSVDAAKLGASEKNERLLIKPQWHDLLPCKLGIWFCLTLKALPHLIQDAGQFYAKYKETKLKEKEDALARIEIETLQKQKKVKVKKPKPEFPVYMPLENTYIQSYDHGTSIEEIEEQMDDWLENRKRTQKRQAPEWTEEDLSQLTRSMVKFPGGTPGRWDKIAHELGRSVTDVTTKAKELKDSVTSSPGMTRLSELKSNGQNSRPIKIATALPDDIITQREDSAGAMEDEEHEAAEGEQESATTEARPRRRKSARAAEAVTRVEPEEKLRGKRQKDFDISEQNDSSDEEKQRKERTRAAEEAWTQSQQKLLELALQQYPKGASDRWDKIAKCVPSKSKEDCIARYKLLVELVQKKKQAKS
# T4 sequence (Q9R1J0 whole entry): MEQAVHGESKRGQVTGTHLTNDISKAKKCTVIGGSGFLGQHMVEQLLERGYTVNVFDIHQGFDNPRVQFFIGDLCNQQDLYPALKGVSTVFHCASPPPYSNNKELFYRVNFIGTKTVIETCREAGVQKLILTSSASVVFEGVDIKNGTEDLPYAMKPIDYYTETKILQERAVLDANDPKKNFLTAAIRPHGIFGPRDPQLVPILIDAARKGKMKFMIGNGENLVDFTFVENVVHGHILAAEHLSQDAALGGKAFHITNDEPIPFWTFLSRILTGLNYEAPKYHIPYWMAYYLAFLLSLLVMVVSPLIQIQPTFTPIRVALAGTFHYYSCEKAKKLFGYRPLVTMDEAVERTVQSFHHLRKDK
# T5 sequence (Q60930 whole entry): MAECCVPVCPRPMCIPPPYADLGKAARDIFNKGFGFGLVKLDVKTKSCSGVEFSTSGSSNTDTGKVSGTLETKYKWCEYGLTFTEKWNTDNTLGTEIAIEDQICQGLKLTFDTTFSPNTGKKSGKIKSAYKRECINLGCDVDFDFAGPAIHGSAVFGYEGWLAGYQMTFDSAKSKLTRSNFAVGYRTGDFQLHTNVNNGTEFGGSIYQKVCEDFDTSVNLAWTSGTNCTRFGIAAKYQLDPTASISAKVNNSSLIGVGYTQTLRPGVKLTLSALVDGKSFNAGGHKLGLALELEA
# T1 sequence (Q9R0P6 whole entry): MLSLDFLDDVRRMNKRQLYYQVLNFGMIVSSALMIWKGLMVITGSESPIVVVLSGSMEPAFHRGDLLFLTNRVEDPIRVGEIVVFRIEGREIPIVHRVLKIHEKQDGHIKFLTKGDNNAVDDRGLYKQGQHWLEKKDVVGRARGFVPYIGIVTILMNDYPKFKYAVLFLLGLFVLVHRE
# T24 sequence (Q80UU9 whole entry): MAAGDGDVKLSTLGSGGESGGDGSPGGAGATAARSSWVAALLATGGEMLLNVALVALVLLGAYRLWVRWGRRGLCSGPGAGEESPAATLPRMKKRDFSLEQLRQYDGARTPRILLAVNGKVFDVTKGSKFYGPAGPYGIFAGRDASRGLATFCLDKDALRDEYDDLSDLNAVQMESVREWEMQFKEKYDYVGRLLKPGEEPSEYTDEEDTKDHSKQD
# T3 sequence (Q9CQ85 whole entry): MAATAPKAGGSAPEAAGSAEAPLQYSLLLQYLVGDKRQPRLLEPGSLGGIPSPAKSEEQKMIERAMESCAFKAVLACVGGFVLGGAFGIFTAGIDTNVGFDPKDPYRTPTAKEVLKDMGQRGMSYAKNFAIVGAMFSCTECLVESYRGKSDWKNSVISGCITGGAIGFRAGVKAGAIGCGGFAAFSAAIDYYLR
# T6 sequence (Q8BVU5 47-350): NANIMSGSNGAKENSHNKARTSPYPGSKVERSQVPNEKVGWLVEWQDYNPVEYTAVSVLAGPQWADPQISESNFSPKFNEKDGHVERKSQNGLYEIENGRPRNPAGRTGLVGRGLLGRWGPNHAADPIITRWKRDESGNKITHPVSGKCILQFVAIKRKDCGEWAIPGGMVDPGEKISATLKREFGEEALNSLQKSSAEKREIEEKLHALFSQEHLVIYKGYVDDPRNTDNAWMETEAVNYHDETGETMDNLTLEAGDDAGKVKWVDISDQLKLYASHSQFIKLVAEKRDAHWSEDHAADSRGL
# T26 sequence (Q8VCX5 34-477): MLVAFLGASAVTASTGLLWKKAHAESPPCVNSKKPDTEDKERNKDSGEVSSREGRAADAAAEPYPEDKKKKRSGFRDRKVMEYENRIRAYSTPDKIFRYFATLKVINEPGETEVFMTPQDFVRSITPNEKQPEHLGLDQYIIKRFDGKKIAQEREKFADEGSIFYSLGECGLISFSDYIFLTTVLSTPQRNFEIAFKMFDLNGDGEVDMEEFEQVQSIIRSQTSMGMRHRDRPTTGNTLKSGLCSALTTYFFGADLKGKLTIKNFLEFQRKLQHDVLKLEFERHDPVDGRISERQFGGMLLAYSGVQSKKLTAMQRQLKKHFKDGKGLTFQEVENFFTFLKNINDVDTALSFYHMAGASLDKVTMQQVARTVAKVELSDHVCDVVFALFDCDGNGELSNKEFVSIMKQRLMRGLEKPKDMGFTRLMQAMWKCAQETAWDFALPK
smiles,measurement,setting,value
"C#CCCCC1(CC/C=C\C/C=C\C/C=C\CCCC(=O)NCCO)N=N1 [AEA-DA, (5Z,8Z,11Z)-N-(2-hydroxyethyl)-14-(3-(pent-4-yn-1-yl)-3H-diazirin-3-yl)tetradeca-5,8,11-trienamide]","SILAC ratio, SEC11A (P67812)",[1],5.4
same,"SILAC ratio, CERS2 (Q924Z4)",[2],17.1
same,"SILAC ratio, TIMM22 (Q9CQ85)",[3],13.6
same,"SILAC ratio, NSDHL (Q15738)",[4],9.4
same,"SILAC ratio, VDAC2 (P45880)",[5],16.5
same,"SILAC ratio, GM20425 (E9Q035)",[6],16.5
same,"SILAC ratio, AEA-DA probe versus No UV",[7],20.0
same,"SILAC ratio, TOMM22 (Q9CPQ3)",[8],20.0
same,"SILAC ratio, AEA-DA probe versus No UV",[9],6.0
same,"SILAC ratio, AEA-DA probe versus No UV",[10],20.0
same,"SILAC ratio, FADS2 (Q9Z0R9)",[11],10.5
same,"SILAC ratio, DCAKD (Q8BHC4)",[12],9.0
same,"SILAC ratio, AEA-DA probe versus No UV",[13],12.3
same,"SILAC ratio, AEA-DA probe versus No UV",[14],20.0
same,"SILAC ratio, AEA-DA probe versus No UV",[15],15.1
same,"SILAC ratio, AEA-DA probe versus No UV",[16],20.0
same,"SILAC ratio, LPCAT3 (Q6P1A2)",[17],18.7
same,"SILAC ratio, PSAP (P07602)",[18],20.0
same,"SILAC ratio, TMEM48 (Q8VCB1)",[19],14.5
same,"SILAC ratio, DNAJC1 (Q96KC8)",[20],20.0
same,"SILAC ratio, HMOX2 (P30519)",[21],4.0
same,"SILAC ratio, OPA3 (Q505D7)",[22],20.0
same,"SILAC ratio, HSD17B12 (Q53GQ0)",[23],15.3
same,"SILAC ratio, SGPL1 (O95470)",[24],20.0
same,"SILAC ratio, PGRMC2 (Q80UU9)",[25],16.3
same,"SILAC ratio, ABHD6 (Q8R2Y0)",[26],20.0
same,"SILAC ratio, AEA-DA probe versus No UV",[27],20.0
same,"SILAC ratio, AEA-DA probe versus No UV",[28],11.6
same,"SILAC ratio, EMD (O08579)",[29],20.0
same,"SILAC ratio, NPTN (Q9Y639)",[30],17.4
same,"SILAC ratio, MARCH5 (Q3KNM2)",[31],20.0
